Measured values as given in BigSolDB 2.1.

With `O=c1c(-c2ccc(O)cc2)coc2cc(O[C@@H]3O[C@H](CO)[C@@H](O)[C@H](O)[C@H]3O)cc(O)c12` the solubility (mole fraction) (in THF, 283.2 K) was 8.67e-05, the solubility (mole fraction) (in THF, 293.2 K) was 0.000101 and the solubility (mole fraction) (in THF, 303.2 K) was 0.000123. It also gave a solubility (mole fraction) (in THF, 313.2 K) of 0.000149, a solubility (mole fraction) (in THF, 323.2 K) of 0.000186 and a solubility (mole fraction) (in acetone, 283.2 K) of 0.000354. For the same compound, the solubility (mole fraction) (in acetone, 293.2 K) was 0.000361, the solubility (mole fraction) (in acetone, 303.2 K) was 0.000369 and the solubility (mole fraction) (in acetone, 313.2 K) was 0.000382. For the same compound, the solubility (mole fraction) (in acetone, 323.2 K) was 0.000388, the solubility (mole fraction) (in acetonitrile, 283.2 K) was 1.15e-06 and the solubility (mole fraction) (in acetonitrile, 293.2 K) was 1.61e-06. It also gave a solubility (mole fraction) (in acetonitrile, 303.2 K) of 2.15e-06, a solubility (mole fraction) (in acetonitrile, 313.2 K) of 2.62e-06 and a solubility (mole fraction) (in acetonitrile, 323.2 K) of 3.12e-06. It also gave a solubility (mole fraction) (in chloroform, 283.2 K) of 2.86e-07, a solubility (mole fraction) (in chloroform, 293.2 K) of 3.37e-07 and a solubility (mole fraction) (in chloroform, 303.2 K) of 4.14e-07. It also gave a solubility (mole fraction) (in chloroform, 313.2 K) of 5.02e-07, a solubility (mole fraction) (in chloroform, 323.2 K) of 6.54e-07 and a solubility (mole fraction) (in cyclohexane, 283.2 K) of 2.66e-07. For the same compound, the solubility (mole fraction) (in cyclohexane, 293.2 K) was 4.59e-07, the solubility (mole fraction) (in cyclohexane, 303.2 K) was 6.56e-07 and the solubility (mole fraction) (in cyclohexane, 313.2 K) was 9.11e-07. It also gave a solubility (mole fraction) (in cyclohexane, 323.2 K) of 1.25e-06, a solubility (mole fraction) (in ethanol, 283.2 K) of 2.63e-05 and a solubility (mole fraction) (in ethanol, 293.2 K) of 2.85e-05. For the same compound, the solubility (mole fraction) (in ethanol, 303.2 K) was 3.28e-05, the solubility (mole fraction) (in ethanol, 313.2 K) was 3.72e-05 and the solubility (mole fraction) (in ethanol, 323.2 K) was 4.38e-05. It also gave a solubility (mole fraction) (in ethyl acetate, 283.2 K) of 1.17e-06, a solubility (mole fraction) (in ethyl acetate, 293.2 K) of 1.52e-06 and a solubility (mole fraction) (in ethyl acetate, 303.2 K) of 1.99e-06. It also gave a solubility (mole fraction) (in ethyl acetate, 313.2 K) of 2.55e-06, a solubility (mole fraction) (in ethyl acetate, 323.2 K) of 3.25e-06 and a solubility (mole fraction) (in isopropanol, 283.2 K) of 7.95e-06. For the same compound, the solubility (mole fraction) (in isopropanol, 293.2 K) was 1.05e-05, the solubility (mole fraction) (in isopropanol, 303.2 K) was 1.34e-05 and the solubility (mole fraction) (in isopropanol, 313.2 K) was 1.71e-05. The solubility (mole fraction) (in isopropanol, 323.2 K) was 2.2e-05, the solubility (mole fraction) (in methanol, 283.2 K) was 5e-05 and the solubility (mole fraction) (in methanol, 293.2 K) was 5.54e-05. The solubility (mole fraction) (in methanol, 303.2 K) was 5.91e-05, the solubility (mole fraction) (in methanol, 313.2 K) was 6.44e-05 and the solubility (mole fraction) (in methanol, 323.2 K) was 7.04e-05. The solubility (mole fraction) (in n-butanol, 283.2 K) was 4.78e-06, the solubility (mole fraction) (in n-butanol, 293.2 K) was 8.48e-06 and the solubility (mole fraction) (in n-butanol, 303.2 K) was 1.25e-05. For the same compound, the solubility (mole fraction) (in n-butanol, 313.2 K) was 1.56e-05, the solubility (mole fraction) (in n-butanol, 323.2 K) was 1.91e-05 and the solubility (mole fraction) (in n-hexane, 283.2 K) was 3.64e-07. The solubility (mole fraction) (in n-hexane, 293.2 K) was 4.87e-07, the solubility (mole fraction) (in n-hexane, 303.2 K) was 6.47e-07 and the solubility (mole fraction) (in n-hexane, 313.2 K) was 8.58e-07. It also gave a solubility (mole fraction) (in n-hexane, 323.2 K) of 1.14e-06.
